“And” between values parts separate entries of the source, which are not always exact repeats. Identical values can stand only once.
Test system: DiMT protein
Experiment: DiMT enzyme activity, kinetics and substrate specificity (MTase-Glo methyltransferase assay)
Format: biochemical, Dirofilaria immitis
Details: for Vmax / Km: Michaelis-Menten fit; for Km: other substrate fixed; for DiMT catalytic activity for methylation of the substrate: SAM as co-substrate
[1] = DiMT 90 ng/μL, SAM 40 μM, substrate 300 μM

C[S+](CC[C@H](N)C(=O)[O-])C[C@H]1O[C@@H](n2cnc3c(N)ncnc32)[C@H](O)[C@@H]1O (stereo partly drawn) [SAM, S-adenosyl-L-methionine]
Kcat (S^-1) (DiMT 90 ng/μL): 42.94 S^-1 | Vmax (DiMT 90 ng/μL): 275.7 ± 3.9 nmol/µg/min | Km (DiMT 90 ng/μL): 104 ± 2.7 µM | Mean RLU (SAM 10 µM, dopamine 360 µM): 756.5 RLU | RLU (single experiments) (SAM 10 µM, dopamine 360 µM): 914.5 RLU and 723.5 RLU and 631.5 RLU | Mean RLU (SAM 20 µM, dopamine 360 µM): 2042.5 RLU | RLU (single experiments) (SAM 20 µM, dopamine 360 µM): 2199.5 RLU and 2145.5 RLU and 1782.5 RLU | Mean RLU (SAM 30 µM, dopamine 360 µM): 3090.5 RLU | RLU (single experiments) (SAM 30 µM, dopamine 360 µM): 2251.5 RLU and 2688.5 RLU and 4331.5 RLU | Mean RLU (SAM 40 µM, dopamine 360 µM): 4397.8 RLU | RLU (single experiments) (SAM 40 µM, dopamine 360 µM): 4459.5 RLU and 4406.5 RLU and 4327.5 RLU | Mean RLU (SAM 50 µM, dopamine 360 µM): 5027.5 RLU | RLU (single experiments) (SAM 50 µM, dopamine 360 µM): 4688.5 RLU and 5346.5 RLU and 5047.5 RLU | Mean RLU (SAM 60 µM, dopamine 360 µM): 4815.8 RLU | RLU (single experiments) (SAM 60 µM, dopamine 360 µM): 4881.5 RLU and 5382.5 RLU and 4183.5 RLU

NCCc1ccc(O)c(O)c1 [Dopamine]
Kcat (S^-1) (DiMT 90 ng/μL): 241.28 S^-1 | Mean RLU [1]: 5806.3 RLU | Vmax (DiMT 90 ng/μL): 1549.0 nmol/µg/min and 1549.0 ± 21.4 nmol/µg/min | Km (DiMT 90 ng/μL): 106 ± 6.2 µM | DiMT catalytic activity for methylation of the substrate: readily catalyzed the methylation | Mean RLU (dopamine 50 uM, SAM (30 µM)): 114.3 RLU | RLU (single experiments) (dopamine 50 uM, SAM (30 µM)): 106.0 RLU and 141.0 RLU and 96.0 RLU | Mean RLU (dopamine 100 uM, SAM (30 µM)): 391.3 RLU | Mean RLU (dopamine 200 uM, SAM (30 µM)): 1186.3 RLU | RLU (single experiments) (dopamine 200 uM, SAM (30 µM)): 958.0 RLU and 965.0 RLU and 1636.0 RLU | Mean RLU (dopamine 300 uM, SAM (30 µM)): 2161.3 RLU | RLU (single experiments) (dopamine 300 uM, SAM (30 µM)): 1950.0 RLU and 1857.0 RLU and 2677.0 RLU | Mean RLU (dopamine 400 uM, SAM (30 µM)): 2830.0 RLU | RLU (single experiments) (dopamine 400 uM, SAM (30 µM)): 2877.0 RLU and 2606.0 RLU and 3007.0 RLU | Mean RLU (dopamine 500 uM, SAM (30 µM)): 3483.0 RLU | RLU (single experiments) (dopamine 500 uM, SAM (30 µM)): 2900.0 RLU and 4023.0 RLU and 3526.0 RLU

NCC(O)c1ccc(O)cc1 (centres unmarked) [Octopamine]
fold lower DiMT activity than that of dopamine: 3 fold | Mean RLU [1]: 1996.7 RLU | DiMT catalytic activity for methylation of the substrate: modest activity

NCCOP(=O)(O)O [Phosphoethanolamine]
Mean RLU [1]: -1783.7 RLU | DiMT catalytic activity for methylation of the substrate: did not depict catalytic activity

NCCc1ccc(O)cc1 [Tyramine]
fold lower DiMT activity than that of dopamine: 6 fold | Mean RLU [1]: 1001.7 RLU | DiMT catalytic activity for methylation of the substrate: modest activity

OCCS [2-Mercaptoethanol]
Mean RLU [1]: -2592.7 RLU | DiMT catalytic activity for methylation of the substrate: did not depict catalytic activity

From article PMC11392244, “Characterization of a unique catechol-O-methyltransferase as a molecular drug target in parasitic filarial nematodes” (PLOS Neglected Tropical Diseases, 2024)
